Assay results as given in ChEMBL document CHEMBL5727863, “Substituted imidazo[1,2-A]pyridin-2-ylamine compounds, and pharmaceutical compositions and methods of use thereof” (2020).
pIC50: −log10 of the molar value.

Legend:
[1] = target: Tyrosine-protein kinase JAK1 (Homo sapiens, UniProt P23458); assay: (§1) In Vitro Assays for Determining the Inhibition of Janus Kinases: The in vitro inhibition of recombinant human JAKs was determined as follow.Compounds were tested in LANTHASCREEN™ time-resolved fluorescence energy transfer (TR-FRET) enzymatic assays from Invitrogen. The human Janus kinase 1 (JAK1) used in the assay is the recombinant JAK1 catalytic domain (amino acids 866-1154) expressed and purified from insect cells (Invitrogen, Cat. No. PV4774). The human Janus kinase 2 (JAK2) used in the assay is the recombinant JAK2 catalytic domain (amino acids 808-1132) expressed and purified from insect cells (Invitrogen, Cat. No. PV4210). The human Janus kinase 3 (JAK3) used in the assay is the recombinant JAK3 catalytic domain (amino acids 781-1124) expressed and purified from insect cells (Invitrogen, Cat. No. PV3855). The human tyrosine kinase 2 (TYK2) used in the assay is the recombinant TYK2 catalytic domain (amino acids 833-1187) expressed and purified from insect cells (Invitrogen, Cat. No. PV4790). The substrate is a recombinant STAT1 expressed as a fusion with GFP (Green Fluorescent Protein) to act as a physiological substrate (Invitrogen, Cat. No. PV5211).Test compounds were prepared and diluted in DMSO in 3-fold serial dilutions for 10 doses to 100× of the final testing concentrations. The compounds were then further diluted to 4× by the kinase reaction buffer (Invitrogen, Cat. No. PV3189). The enzymatic reaction for compound testing was performed in a white 384-well polypropylene plate (Packard, Cat. No. 6005214) with a total reaction volume of 10 μL containing 440 ng/mL JAK1, 11 ng/mL JAK2, 400 ng/mL JAK3, or 200 ng/mL TYK2, 100 nM substrate, and 1 mM ATP. The assay started with loading 2.5 μL of JAK1, JAK2, JAK3, or TYK2 diluted in the kinase reaction buffer to wells, followed by addition of an equal volume of 4× compounds for 15-min incubation at room temperature for pre-treatment. The enzymatic reaction was initiated by addition of 5 μL of a mixture of the substrate and ATP prepared in the kinase reaction buffer. […]
[2] = target: Non-receptor tyrosine-protein kinase TYK2 (Homo sapiens, UniProt P29597); assay: as §1
[3] = target: Tyrosine-protein kinase JAK2 (Homo sapiens, UniProt O60674); assay: as §1
Chain of Tyrosine-protein kinase JAK2 (O60674 whole entry): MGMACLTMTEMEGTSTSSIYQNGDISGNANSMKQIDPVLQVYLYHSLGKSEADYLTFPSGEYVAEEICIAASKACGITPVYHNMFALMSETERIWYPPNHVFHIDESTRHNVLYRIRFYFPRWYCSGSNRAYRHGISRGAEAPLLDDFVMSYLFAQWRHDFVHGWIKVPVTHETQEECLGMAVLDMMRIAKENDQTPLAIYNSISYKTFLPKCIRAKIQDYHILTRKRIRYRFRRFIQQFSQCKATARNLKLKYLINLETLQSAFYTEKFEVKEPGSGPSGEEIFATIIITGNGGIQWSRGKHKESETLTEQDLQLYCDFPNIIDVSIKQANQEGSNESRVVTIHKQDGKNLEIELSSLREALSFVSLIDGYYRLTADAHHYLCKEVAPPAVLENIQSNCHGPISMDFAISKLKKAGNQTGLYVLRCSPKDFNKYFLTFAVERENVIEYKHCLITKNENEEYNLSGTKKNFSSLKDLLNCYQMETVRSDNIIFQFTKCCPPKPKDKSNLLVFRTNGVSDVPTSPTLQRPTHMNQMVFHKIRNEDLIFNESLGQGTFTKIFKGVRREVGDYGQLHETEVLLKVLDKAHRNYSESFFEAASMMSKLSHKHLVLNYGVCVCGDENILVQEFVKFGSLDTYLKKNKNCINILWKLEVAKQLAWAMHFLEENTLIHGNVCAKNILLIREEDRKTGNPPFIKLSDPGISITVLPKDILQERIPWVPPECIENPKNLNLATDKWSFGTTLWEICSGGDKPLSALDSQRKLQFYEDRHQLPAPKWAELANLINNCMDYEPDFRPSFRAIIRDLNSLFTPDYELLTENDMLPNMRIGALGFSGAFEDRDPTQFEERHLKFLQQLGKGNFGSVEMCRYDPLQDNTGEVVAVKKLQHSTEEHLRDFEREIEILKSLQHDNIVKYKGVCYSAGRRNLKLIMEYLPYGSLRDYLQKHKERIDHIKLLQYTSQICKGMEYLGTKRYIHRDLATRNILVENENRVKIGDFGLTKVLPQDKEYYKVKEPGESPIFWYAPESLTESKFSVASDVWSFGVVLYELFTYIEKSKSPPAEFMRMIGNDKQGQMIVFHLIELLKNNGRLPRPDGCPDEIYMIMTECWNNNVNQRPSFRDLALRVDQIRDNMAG

Chain of Non-receptor tyrosine-protein kinase TYK2 (P29597 whole entry): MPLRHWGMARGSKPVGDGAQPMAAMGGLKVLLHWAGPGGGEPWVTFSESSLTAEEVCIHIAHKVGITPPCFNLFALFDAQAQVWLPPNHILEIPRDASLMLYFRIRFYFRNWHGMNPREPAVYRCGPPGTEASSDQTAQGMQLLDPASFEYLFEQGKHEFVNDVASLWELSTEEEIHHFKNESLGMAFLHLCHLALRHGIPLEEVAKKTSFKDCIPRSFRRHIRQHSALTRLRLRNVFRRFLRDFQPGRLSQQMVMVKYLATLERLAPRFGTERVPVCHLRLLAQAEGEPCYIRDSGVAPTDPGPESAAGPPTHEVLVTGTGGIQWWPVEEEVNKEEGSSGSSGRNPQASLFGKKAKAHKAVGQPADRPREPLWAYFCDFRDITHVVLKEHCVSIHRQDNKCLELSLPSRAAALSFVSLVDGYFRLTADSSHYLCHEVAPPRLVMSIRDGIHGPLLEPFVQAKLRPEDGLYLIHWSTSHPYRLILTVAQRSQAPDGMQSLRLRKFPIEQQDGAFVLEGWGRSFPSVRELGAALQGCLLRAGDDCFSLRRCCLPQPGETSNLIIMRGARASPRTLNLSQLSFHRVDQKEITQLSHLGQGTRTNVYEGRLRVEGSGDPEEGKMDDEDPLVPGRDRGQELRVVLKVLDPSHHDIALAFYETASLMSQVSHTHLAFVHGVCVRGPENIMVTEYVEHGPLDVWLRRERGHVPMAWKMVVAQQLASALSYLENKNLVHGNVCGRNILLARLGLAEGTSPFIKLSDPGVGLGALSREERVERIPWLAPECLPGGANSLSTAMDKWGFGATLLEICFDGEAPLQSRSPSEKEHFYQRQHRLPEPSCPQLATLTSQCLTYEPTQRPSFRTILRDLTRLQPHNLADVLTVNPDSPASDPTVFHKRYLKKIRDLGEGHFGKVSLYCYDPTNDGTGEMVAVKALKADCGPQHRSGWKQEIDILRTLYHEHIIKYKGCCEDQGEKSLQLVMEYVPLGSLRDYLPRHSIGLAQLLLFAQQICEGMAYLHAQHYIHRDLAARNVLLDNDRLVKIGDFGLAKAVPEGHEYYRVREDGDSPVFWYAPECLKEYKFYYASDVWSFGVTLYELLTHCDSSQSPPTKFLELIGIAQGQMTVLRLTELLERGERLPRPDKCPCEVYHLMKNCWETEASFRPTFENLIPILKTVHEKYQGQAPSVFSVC
Chain of Tyrosine-protein kinase JAK1 (P23458 whole entry, the tested form may be a part): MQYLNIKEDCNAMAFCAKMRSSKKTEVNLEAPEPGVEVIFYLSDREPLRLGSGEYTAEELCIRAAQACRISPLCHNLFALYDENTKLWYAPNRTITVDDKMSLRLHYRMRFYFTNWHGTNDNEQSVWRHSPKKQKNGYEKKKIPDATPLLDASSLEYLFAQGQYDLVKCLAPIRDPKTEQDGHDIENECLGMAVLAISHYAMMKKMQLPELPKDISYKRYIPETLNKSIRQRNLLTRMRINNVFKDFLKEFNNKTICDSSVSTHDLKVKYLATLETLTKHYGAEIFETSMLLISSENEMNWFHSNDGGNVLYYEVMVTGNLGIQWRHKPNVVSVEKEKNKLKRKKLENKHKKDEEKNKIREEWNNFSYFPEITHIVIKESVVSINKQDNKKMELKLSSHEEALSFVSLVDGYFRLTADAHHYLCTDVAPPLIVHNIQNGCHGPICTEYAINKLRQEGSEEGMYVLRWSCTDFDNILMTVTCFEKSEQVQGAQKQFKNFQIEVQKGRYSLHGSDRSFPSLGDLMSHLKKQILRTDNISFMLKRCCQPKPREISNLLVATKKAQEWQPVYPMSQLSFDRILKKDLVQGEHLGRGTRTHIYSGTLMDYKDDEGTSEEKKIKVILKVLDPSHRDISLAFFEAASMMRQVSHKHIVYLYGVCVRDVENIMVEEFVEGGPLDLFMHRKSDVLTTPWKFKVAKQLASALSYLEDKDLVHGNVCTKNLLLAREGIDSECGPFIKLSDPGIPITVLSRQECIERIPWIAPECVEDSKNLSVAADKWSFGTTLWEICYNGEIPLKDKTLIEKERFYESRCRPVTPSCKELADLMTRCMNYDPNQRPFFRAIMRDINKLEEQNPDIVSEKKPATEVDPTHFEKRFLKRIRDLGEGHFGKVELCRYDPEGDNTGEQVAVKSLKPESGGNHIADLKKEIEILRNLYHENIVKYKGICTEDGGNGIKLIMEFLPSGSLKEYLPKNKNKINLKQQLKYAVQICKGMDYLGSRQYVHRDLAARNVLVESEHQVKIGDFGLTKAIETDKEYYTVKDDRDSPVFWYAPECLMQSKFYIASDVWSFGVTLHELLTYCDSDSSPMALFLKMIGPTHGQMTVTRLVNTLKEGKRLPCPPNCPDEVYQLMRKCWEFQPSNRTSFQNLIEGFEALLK

- pIC50 [1]: < 5.30
- pIC50 [2]: < 5.30
- pIC50 [3]: < 5.30
SMILES: N#CC1(c2ccc(-c3cccc4nc(NC(=O)C5CC5)cn34)cc2)CC1
